Laboratory results: PubChem BioAssay AID248 (DTP/NCI, 2004)
Inconclusive results and toxic doses are left out. No stated cut-off is given here; in the data, active means T/C of 150% or more; inactive means T/C below 125%.

System: L1210 leukemia ip in BDF1 mice, survival T/C
Assay: NCI In Vivo Anticancer Drug Screen. Data for tumor model L1210 Leukemia (intraperitoneal) in B6D2F1 (BDF1) mice
Settings: endpoint: mean survival time, higher = longer survival
Method in brief: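 Ratio derived from survival: compound-dosed mice over vehicle-dosed mice, all bearing a transplantable tumor.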

[1] = dose: 100.0 mg/kg/injection, schedule: Q01DX001 (ip), vehicle: Klucel (hydroxypropylcellulose) (HPC)
[2] = dose: 200.0 mg/kg/injection, schedule: Q01DX001 (ip), vehicle: Klucel (hydroxypropylcellulose) (HPC)
[3] = dose: 100.0 mg/kg/injection, schedule: Q04DX003 (ip), vehicle: saline with Tween-80
[4] = dose: 200.0 mg/kg/injection, schedule: Q04DX003 (ip), vehicle: saline with Tween-80
[5] = dose: 400.0 mg/kg/injection, schedule: Q04DX003 (ip), vehicle: saline with Tween-80
[6] = dose: 50.0 mg/kg/injection, schedule: Q01DX009 (ip), vehicle: saline with Tween-80
[7] = dose: 100.0 mg/kg/injection, schedule: Q01DX009 (ip), vehicle: saline with Tween-80
[8] = dose: 200.0 mg/kg/injection, schedule: Q01DX009 (ip), vehicle: saline with Tween-80
[9] = dose: 100.0 mg/kg/injection, schedule: Q04DX003 (ip), vehicle: Klucel (hydroxypropylcellulose) (HPC)
[10] = dose: 200.0 mg/kg/injection, schedule: Q04DX003 (ip), vehicle: Klucel (hydroxypropylcellulose) (HPC)
[11] = dose: 400.0 mg/kg/injection, schedule: Q04DX003 (ip), vehicle: Klucel (hydroxypropylcellulose) (HPC)
[12] = dose: 100.0 mg/kg/injection, schedule: Q01DX001 (ip), vehicle: saline
[13] = dose: 100.0 mg/kg/injection, schedule: Q01DX001 (ip), vehicle: carboxymethylcellulose (CMC)
[14] = dose: 200.0 mg/kg/injection, schedule: Q01DX001 (ip), vehicle: carboxymethylcellulose (CMC)
[15] = dose: 200.0 mg/kg/injection, schedule: Q01DX001 (ip), vehicle: saline

Measured: T/C

c1ccc([C]([Hg][C](=C(c2ccccc2)c2ccccc2)c2ccccc2)=C(c2ccccc2)c2ccccc2)cc1
inactive: dose: 50.0 mg/kg/injection, schedule: Q01DX001 (ip), vehicle: Klucel (hydroxypropylcellulose) (HPC) 95 % of control | [1] 88 % of control | [2] 90 % of control

CC1(C)CC(=O)C=C(N2CCC(CCCC3CCN(C4=CC(=O)CC(C)(C)C4)CC3)CC2)C1
inactive: dose: 50.0 mg/kg/injection, schedule: Q04DX003 (ip), vehicle: saline with Tween-80 94 % of control | [3] 102 % of control | [4] 88 % of control

O=C(C1C2CCC(C2)C1C(=O)N1CCCCC1)N1CCCCC1 (stereo unspecified)
inactive: [3] 100 % of control | [4] 100 % of control | [5] 100 % of control

COc1cccc(CC(C)(C)CCO)c1
inactive: [6] 102 % of control | [7] 100 % of control | [8] 96 % of control

Nc1c(Br)cc(F)cc1[N+](=O)[O-]
inactive: [9] 97 % of control | [10] 96 % of control | [11] 96 % of control

Clc1ccc2c(c1)C(Br)c1cc(Cl)cc(Cl)c1-2 (stereo unspecified)
inactive: dose: 25.0 mg/kg/injection, schedule: Q01DX009 (ip), vehicle: saline with Tween-80 102 % of control | dose: 25.0 mg/kg/injection, schedule: Q04DX003 (ip), vehicle: saline 102 % of control | [6] 94 % of control | dose: 50.0 mg/kg/injection, schedule: Q04DX003 (ip), vehicle: saline 102 % of control | dose: 100.0 mg/kg/injection, schedule: Q01DX001 (ip), vehicle: acetone 94 % of control | [7] 93 % of control | dose: 100.0 mg/kg/injection, schedule: Q04DX003 (ip), vehicle: saline 91 % of control

CCCCC(C(=O)O)c1ccccc1 (stereo unspecified)
inactive: dose: 100.0 mg/kg/injection, schedule: Q04DX003 (ip), vehicle: saline sonified 100 % of control | dose: 200.0 mg/kg/injection, schedule: Q04DX003 (ip), vehicle: saline sonified 97 % of control | dose: 400.0 mg/kg/injection, schedule: Q04DX003 (ip), vehicle: saline sonified 100 % of control

CC1(C(Cl)Cl)CCCCC1=O (stereo unspecified)
inactive: dose: 5.0 mg/kg/injection, schedule: Q01DX001 (ip), vehicle: saline 95 % of control | dose: 10.0 mg/kg/injection, schedule: Q01DX001 (ip), vehicle: saline 96 % of control | dose: 20.0 mg/kg/injection, schedule: Q01DX001 (ip), vehicle: saline 109 % of control | dose: 40.0 mg/kg/injection, schedule: Q01DX001 (ip), vehicle: saline 100 % of control | dose: 80.0 mg/kg/injection, schedule: Q01DX001 (ip), vehicle: saline 97 % of control | [12] 104 % of control

CC(=O)Cc1cc(=O)[nH]c(=S)[nH]1
inactive: [6] 95 % of control | [7] 92 % of control | [8] 92 % of control

O=C1c2ccccc2C(O)(O)C1(O)C1(O)C(=O)c2ccccc2C1(O)O (stereo unspecified)
inactive: [13] 109 % of control | [14] 103 % of control

c1ccc(-c2n[nH]c(-c3ccccc3)c2-c2ccccc2)cc1
inactive: [3] 92 % of control | [4] 100 % of control | [5] 95 % of control

Cc1ccc(NC(=O)/C=N/O)cc1C
inactive: [12] 104 % of control | [15] 102 % of control | dose: 400.0 mg/kg/injection, schedule: Q01DX001 (ip), vehicle: saline 90 % of control

O=C(NCCF)NC1CCC(C(=O)O)CC1 (stereo unspecified)
inactive: dose: 50.0 mg/kg/injection, schedule: Q01DX001 (ip), vehicle: saline 111 % of control | [12] 107 % of control | [15] 96 % of control

O=c1cc[nH]c2n[nH]nc12
inactive: [1] 94 % of control | [2] 94 % of control | dose: 400.0 mg/kg/injection, schedule: Q01DX001 (ip), vehicle: Klucel (hydroxypropylcellulose) (HPC) 96 % of control

NC(Cc1ccccc1)C(=O)CCl (stereo unspecified)
inactive: dose: 25.0 mg/kg/injection, schedule: Q04DX002 (ip), vehicle: saline 105 % of control | dose: 50.0 mg/kg/injection, schedule: Q04DX002 (ip), vehicle: saline 108 % of control

O=C(Nc1ccc(Cl)cc1Cl)c1ccc2c(c1)C(=O)OC2=O
inactive: [7] 90 % of control | [8] 92 % of control | dose: 400.0 mg/kg/injection, schedule: Q01DX009 (ip), vehicle: saline with Tween-80 92 % of control

CN(N=O)C(=O)NCCSc1nc2ncncc2[nH]1
inactive: dose: 31.0 mg/kg/injection, schedule: Q01DX001 (ip), vehicle: carboxymethylcellulose (CMC) 87 % of control | dose: 62.0 mg/kg/injection, schedule: Q01DX001 (ip), vehicle: carboxymethylcellulose (CMC) 103 % of control | dose: 93.0 mg/kg/injection, schedule: Q01DX001 (ip), vehicle: carboxymethylcellulose (CMC) 106 % of control | dose: 187.0 mg/kg/injection, schedule: Q01DX001 (ip), vehicle: carboxymethylcellulose (CMC) 103 % of control | dose: 250.0 mg/kg/injection, schedule: Q01DX001 (ip), vehicle: carboxymethylcellulose (CMC) 103 % of control | dose: 500.0 mg/kg/injection, schedule: Q01DX001 (ip), vehicle: carboxymethylcellulose (CMC) 115 % of control | dose: 750.0 mg/kg/injection, schedule: Q01DX001 (ip), vehicle: carboxymethylcellulose (CMC) 123 % of control | dose: 1000.0 mg/kg/injection, schedule: Q01DX001 (ip), vehicle: carboxymethylcellulose (CMC) 117 % of control

COC(OC)c1[nH]c(=O)[nH]c(=O)c1F.[Hg]
inactive: dose: 3.0 mg/kg/injection, schedule: Q01DX009 (ip), vehicle: saline 97 % of control | dose: 6.0 mg/kg/injection, schedule: Q01DX009 (ip), vehicle: saline 97 % of control | dose: 12.0 mg/kg/injection, schedule: Q04DX003 (ip), vehicle: saline 98 % of control

CCCCCC(C)O[Si](C)c1cccc(C)c1 (stereo unspecified)
inactive: [3] 107 % of control | [4] 98 % of control | [5] 102 % of control

CC(=O)N(C1=C(Cl)C(=O)c2ccccc2C1=O)c1ccc(Cl)cc1
inactive: dose: 75.0 mg/kg/injection, schedule: Q01DX001 (ip), vehicle: carboxymethylcellulose (CMC) 93 % of control | dose: 150.0 mg/kg/injection, schedule: Q01DX001 (ip), vehicle: carboxymethylcellulose (CMC) 92 % of control

Brc1nnnn1-c1ccccc1
inactive: dose: 100.0 mg/kg/injection, schedule: Q01DX009 (ip), vehicle: Klucel (hydroxypropylcellulose) (HPC) 99 % of control | [9] 97 % of control | dose: 200.0 mg/kg/injection, schedule: Q01DX009 (ip), vehicle: Klucel (hydroxypropylcellulose) (HPC) 98 % of control | [10] 108 % of control | dose: 400.0 mg/kg/injection, schedule: Q01DX009 (ip), vehicle: Klucel (hydroxypropylcellulose) (HPC) 96 % of control | [11] 94 % of control

Cc1c2ccnc(-c3ccccc3)c2cc2c1[nH]c1ccccc12
inactive: dose: 31.3 mg/kg/injection, schedule: Q01DX Z (ip), vehicle: other 98 % of control | dose: 62.5 mg/kg/injection, schedule: Q01DX Z (ip), vehicle: other 101 % of control | [13] 108 % of control | dose: 125.0 mg/kg/injection, schedule: Q01DX015 (oral), vehicle: carboxymethylcellulose (CMC) 102 % of control | dose: 125.0 mg/kg/injection, schedule: Q01DX Z (ip), vehicle: other 101 % of control | [14] 103 % of control | dose: 250.0 mg/kg/injection, schedule: Q01DX015 (oral), vehicle: carboxymethylcellulose (CMC) 93 % of control | dose: 250.0 mg/kg/injection, schedule: Q01DX Z (ip), vehicle: other 91 % of control | dose: 400.0 mg/kg/injection, schedule: Q01DX001 (ip), vehicle: carboxymethylcellulose (CMC) 97 % of control | dose: 500.0 mg/kg/injection, schedule: Q01DX015 (oral), vehicle: carboxymethylcellulose (CMC) 93 % of control

CCOc1ccc2cc(S(=O)(=O)O)ccc2c1N
inactive: dose: 100.0 mg/kg/injection, schedule: Q01DX009 (ip), vehicle: saline 93 % of control | [9] 97 % of control | dose: 200.0 mg/kg/injection, schedule: Q01DX009 (ip), vehicle: saline 95 % of control | [10] 98 % of control | dose: 400.0 mg/kg/injection, schedule: Q01DX009 (ip), vehicle: saline 87 % of control | [11] 101 % of control
